This is an account of results in US12023333B2, “Phenyl-sulfamoyl.benzoyc acids as ERAP1 modulators” (GREY WOLF THERAPEUTICS LIMITED, priority 2019, dated 2024).

By IC50 is commonly meant the point on the concentration scale where inhibition reaches its midpoint.

T1 sequence (Q9NZ08 37-941): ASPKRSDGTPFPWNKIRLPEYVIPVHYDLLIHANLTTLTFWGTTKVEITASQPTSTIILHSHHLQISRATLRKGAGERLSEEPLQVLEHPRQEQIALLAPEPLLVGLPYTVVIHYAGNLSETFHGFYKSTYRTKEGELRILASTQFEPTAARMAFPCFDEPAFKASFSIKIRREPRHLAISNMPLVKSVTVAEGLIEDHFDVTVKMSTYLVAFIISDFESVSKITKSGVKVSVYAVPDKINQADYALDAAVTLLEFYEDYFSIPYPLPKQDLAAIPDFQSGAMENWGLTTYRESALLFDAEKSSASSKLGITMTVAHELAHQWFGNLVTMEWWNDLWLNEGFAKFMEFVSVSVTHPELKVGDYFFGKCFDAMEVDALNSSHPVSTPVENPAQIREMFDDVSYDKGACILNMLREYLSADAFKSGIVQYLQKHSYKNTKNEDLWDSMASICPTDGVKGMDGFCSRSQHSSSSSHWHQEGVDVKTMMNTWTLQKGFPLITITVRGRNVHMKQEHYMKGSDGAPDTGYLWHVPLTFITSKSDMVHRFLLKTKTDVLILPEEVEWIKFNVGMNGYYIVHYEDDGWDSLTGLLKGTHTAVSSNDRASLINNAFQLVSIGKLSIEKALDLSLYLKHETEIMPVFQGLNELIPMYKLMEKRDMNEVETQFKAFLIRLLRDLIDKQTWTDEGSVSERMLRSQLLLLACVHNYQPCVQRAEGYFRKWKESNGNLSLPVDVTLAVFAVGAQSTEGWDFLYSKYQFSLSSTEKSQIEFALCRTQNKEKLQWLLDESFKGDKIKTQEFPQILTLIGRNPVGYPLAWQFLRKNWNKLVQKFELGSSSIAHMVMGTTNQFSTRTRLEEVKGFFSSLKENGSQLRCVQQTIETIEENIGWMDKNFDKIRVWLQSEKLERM

The experiment concerns the target T1, Purified ERAP1(37-941)-10His (ERAP1) (Homo sapiens, UniProt Q9NZ08).
T1 construct: Purified ERAP1(37-941)-10His (ERAP1); 10His (C)
The experiment in a line: ERAP1 mediated hydrolysis of an amide substrate measured in a biochemical system (10-mer decapeptide substrate). The conditions noted are these: 10-mer substrate, 23° C. for 1 h, excitation 279 nm and emission 355 nm; read-out: IC50 vs Decapeptide WRVYEKC(Dnp)ALK-acid (where Dnp is Dinitrophenyl maleimide) (10-mer). In outline:
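ERAP1(37-941)-10His preincubated with compound in 25 mM Bis-tris propane, 0.05% HPMC, pH 7.75, then reacted 1 h at 23 °C with 10-mer WRVYEKC(Dnp)ALK (100 μM solution added in equal volume). Fluorescence read at ex 279/em 355 nm; IC50 from 4-parameter fit.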
Consider `N#Cc1cc(NS(=O)(=O)c2cc(C(=O)O)ccc2C2CC2)c(-c2ccc(Cl)s2)cc1F` [Example 166, 3-(N-(2-(5-chlorothiophen-2-yl)-5-cyano-4-fluorophenyl)sulfamoyl)-4-cyclopropylbenzoic acid], for which the IC50 was below 500 nM.
In the case of `Cc1oncc1-c1ccc(-c2cccnc2)c(NS(=O)(=O)c2cc(C(=O)O)ccc2C2CC2)c1` [Example 167, 4-cyclopropyl-3-(N-(5-(5-methylisoxazol-4-yl)-2-(pyridin-3-yl)phenyl)sulfamoyl)benzoic acid], the IC50 was below 500 nM.
As to `N#Cc1ccc(-c2ccccn2)c(NS(=O)(=O)c2cc(C(=O)O)ccc2C2CCC2)c1` [Example 168, 3-(N-(5-cyano-2-(pyridin-2-yl)phenyl)sulfamoyl)-4-cyclobutylbenzoic acid], the IC50 is below 500 nM.
Consider `N#Cc1ccc(-c2ncccn2)c(NS(=O)(=O)c2cc(C(=O)O)ccc2C2CC2)c1` [Example 169, 3-(N-(5-cyano-2-(pyrimidin-2-yl)phenyl)sulfamoyl)-4-cyclopropylbenzoic acid], for which the IC50 is below 500 nM.
As for `N#Cc1ccc(-c2ccsn2)c(NS(=O)(=O)c2cc(C(=O)O)ccc2C2CC2)c1` [Example 170, 3-(N-(5-cyano-2-(isothiazol-3-yl)phenyl)sulfamoyl)-4-cyclopropylbenzoic acid], the figure is below 500 nM; as for `CS(=O)(=O)c1cc(NS(=O)(=O)c2cc(C(=O)O)ccc2C2CC2)c(-c2ccccn2)cc1Cl` [Example 171, 3-(N-(4-chloro-5-(methylsulfonyl)-2-(pyridin-2-yl)phenyl)sulfamoyl)-4-cyclopropylbenzoic acid], below 500 nM; as for `CS(=O)(=O)c1cc(NS(=O)(=O)c2cc(C(=O)O)ccc2C2CC2)c(-c2ccccn2)cc1F` [Example 172, 4-cyclopropyl-3-(N-(4-fluoro-5-(methylsulfonyl)-2-(pyridin-2-yl)phenyl)sulfamoyl)benzoic acid], below 500 nM.
As for `CC(C)(C)c1ccc(C(=O)O)cc1S(=O)(=O)Nc1cc(C#N)ccc1-c1ccccn1` [Example 173, 4-(tert-butyl)-3-(N-(5-cyano-2-(pyridin-2-yl)phenyl)sulfamoyl) benzoic acid], the figure is below 5000 nM; as for `N#Cc1ccc(-c2ccccn2)c(NS(=O)(=O)c2cc(C(=O)O)ccc2C#N)c1` [Example 175, 4-cyano-3-(N-(5-cyano-2-(pyridin-2-yl)phenyl)sulfamoyl)benzoic acid], above 5000 nM.
As for `Cc1cc(C#N)cc(NS(=O)(=O)c2cc(C(=O)O)ccc2C2CC2)c1-c1ccccn1` [Example 176, 3-(N-(5-cyano-3-methyl-2-(pyridin-2-yl)phenyl)sulfamoyl)-4-cyclopropylbenzoic acid], the IC50 is below 500 nM.
In the case of `Cc1cc(C#N)cc(NS(=O)(=O)c2cc(C(=O)O)ccc2C2CC2)c1-c1ccc(Cl)s1` [Example 177, 3-(N-(2-(5-chlorothiophen-2-yl)-5-cyano-3-methylphenyl)sulfamoyl)-4-cyclopropylbenzoic acid], the IC50 was below 500 nM.
For the molecule `N#Cc1cc(NS(=O)(=O)c2cc(C(=O)O)ccc2C2CC2)c(-c2cscn2)cc1Cl` [Example 178, 3-(N-(4-chloro-5-cyano-2-(thiazol-4-yl)phenyl)sulfamoyl)-4-cyclopropylbenzoic acid], the IC50 was below 500 nM.
Take `N#Cc1cc(NS(=O)(=O)c2cc(C(=O)O)ccc2C2CC2)c(-c2ncccn2)cc1Cl` [Example 179, 3-(N-(4-chloro-5-cyano-2-(pyrimidin-2-yl)phenyl)sulfamoyl)-4-cyclopropylbenzoic acid]: the IC50 is below 500 nM.
As for `N#Cc1cc(NS(=O)(=O)c2cc(C(=O)O)ccc2C2CC2)c(-c2ccsn2)cc1Cl` [Example 180, 3-(N-(4-chloro-5-cyano-2-(isothiazol-3-yl)phenyl)sulfamoyl)-4-cyclopropylbenzoic acid], the figure is below 500 nM; as for `N#Cc1cc(NS(=O)(=O)c2cc(C(=O)O)ccc2C2CC2)c(-c2ccsn2)cc1F` [Example 181, 3-(N-(5-cyano-4-fluoro-2-(isothiazol-3-yl)phenyl)sulfamoyl)-4-cyclopropylbenzoic acid], below 500 nM; as for `N#Cc1cc(NS(=O)(=O)c2cc(C(=O)O)ccc2C2CC2)c(-c2ncccn2)cc1F` [Example 182, 3-(N-(5-cyano-4-fluoro-2-(pyrimidin-2-yl)phenyl)sulfamoyl)-4-cyclopropylbenzoic acid], below 500 nM.
On to `N#Cc1cc(NS(=O)(=O)c2cc(C(=O)O)ccc2C2CC2)c(-c2nccs2)cc1F` [Example 183, 3-(N-(5-cyano-4-fluoro-2-(thiazol-2-yl)phenyl)sulfamoyl)-4-cyclopropylbenzoic acid], for which the IC50 is below 500 nM.
`O=C(O)c1ccc(C2CC2)c(S(=O)(=O)Nc2cc(-c3ccns3)c(F)cc2-c2ccccn2)c1` [Example 184, 4-cyclopropyl-3-(N-(4-fluoro-5-(isothiazol-5-yl)-2-(pyridin-2-yl)phenyl)sulfamoyl)benzoic acid]: the IC50 is below 500 nM.
`Cn1nccc1-c1cc(NS(=O)(=O)c2cc(C(=O)O)ccc2C2CC2)c(-c2ccccn2)cc1F` [Example 185, 4-cyclopropyl-3-(N-(4-fluoro-5-(1-methylpyrazol-5-yl)-2-(pyridin-2-yl)phenyl)sulfamoyl)benzoic acid]: the IC50 is below 500 nM.
As for `Cn1ncnc1-c1cc(NS(=O)(=O)c2cc(C(=O)O)ccc2C2CC2)c(-c2ccccn2)cc1F` [Example 186, 4-cyclopropyl-3-(N-(4-fluoro-5-(1-methyl-1,2,4-triazol-5-yl)-2-(pyridin-2-yl)phenyl)sulfamoyl)benzoic acid], the IC50 is below 500 nM.
With `O=C(O)c1ccc(C2CC2)c(S(=O)(=O)Nc2cc(-n3cnnn3)c(Cl)cc2-c2ccccn2)c1` [Example 187, 3-(N-(4-chloro-2-(pyridin-2-yl)-5-(tetrazol-1-yl)phenyl)sulfamoyl)-4-cyclopropylbenzoic acid], the IC50 was below 500 nM.
As for `Cn1nccc1-c1cc(NS(=O)(=O)c2cc(C(=O)O)ccc2C2CC2)c(-c2ccccn2)cc1Cl` [Example 188, 3-(N-(4-chloro-5-(1-methylpyrazol-5-yl)-2-(pyridin-2-yl)phenyl)sulfamoyl)-4-cyclopropylbenzoic acid], the figure is below 500 nM; as for `Cn1ncnc1-c1cc(NS(=O)(=O)c2cc(C(=O)O)ccc2C2CC2)c(-c2ccccn2)cc1Cl` [Example 189, 3-(N-(4-chloro-5-(1-methyl-1,2,4-triazol-5-yl)-2-(pyridin-2-yl)phenyl)sulfamoyl)-4-cyclopropylbenzoic acid], below 500 nM; as for `O=C(O)c1ccc(C2CC2)c(S(=O)(=O)Nc2cc(-n3cnnn3)c(F)cc2-c2ccccn2)c1` [Example 190, 4-cyclopropyl-3-(N-(4-fluoro-2-(pyridin-2-yl)-5-(tetrazol-1-yl)phenyl)sulfamoyl)benzoic acid], below 500 nM.
For `O=C(O)c1ccc(C2CC2)c(S(=O)(=O)Nc2cc(-c3ccns3)c(Cl)cc2-c2ccccn2)c1` [Example 191, 3-(N-(4-chloro-5-(isothiazol-5-yl)-2-(pyridin-2-yl)phenyl)sulfamoyl)-4-cyclopropylbenzoic acid] the value was below 500 nM.
As for `N#Cc1cc(NS(=O)(=O)c2cc(C(=O)O)ccc2C2CC2)c(-c2nccs2)cc1Cl` [Example 192, 3-(N-(4-chloro-5-cyano-2-(thiazol-2-yl)phenyl)sulfamoyl)-4-cyclopropylbenzoic acid], the figure is below 500 nM.
In the case of `Cc1oncc1-c1cc(NS(=O)(=O)c2cc(C(=O)O)ccc2C2CC2)c(-c2ccccn2)cc1Cl` [Example 193, 3-(N-(4-chloro-5-(5-methylisoxazol-4-yl)-2-(pyridin-2-yl)phenyl)sulfamoyl)-4-cyclopropylbenzoic acid], the IC50 was below 500 nM.
Consider `Cc1oncc1-c1ccc(-n2cccc2)c(NS(=O)(=O)c2cc(C(=O)O)ccc2C2CC2)c1` [Example 194, 4-cyclopropyl-3-(N-(5-(5-methylisoxazol-4-yl)-2-(pyrrol-1-yl)phenyl)sulfamoyl)benzoic acid], for which the IC50 was below 500 nM.
Consider `N#Cc1cc(NS(=O)(=O)c2cc(C(=O)O)ccc2C2CC2)c(-c2cscn2)cc1F` [Example 196, 3-(N-(5-cyano-4-fluoro-2-(thiazol-4-yl)phenyl)sulfamoyl)-4-cyclopropylbenzoic acid], for which the IC50 is below 500 nM.
Take `Cn1nccc1-c1ccc(-n2cccc2)c(NS(=O)(=O)c2cc(C(=O)O)ccc2C2CC2)c1` [Example 197, 4-cyclopropyl-3-(N-(5-(1-methylpyrazol-5-yl)-2-(pyrrol-1-yl)phenyl)sulfamoyl)benzoic acid]: the IC50 is below 500 nM.
Take `O=C(O)c1ccc(C2CC2)c(S(=O)(=O)Nc2cc(-c3ccns3)c(F)cc2-n2cccc2)c1` [Example 198, 4-cyclopropyl-3-(N-(4-fluoro-5-(isothiazol-5-yl)-2-(pyrrol-1-yl)phenyl)sulfamoyl)benzoic acid]: the IC50 was below 500 nM.
On to `Cn1nccc1-c1cc(NS(=O)(=O)c2cc(C(=O)O)ccc2C2CC2)c(-n2cccc2)cc1F` [Example 199, 4-cyclopropyl-3-(N-(4-fluoro-5-(1-methylpyrazol-5-yl)-2-(pyrrol-1-yl)phenyl)sulfamoyl)benzoic acid], for which the IC50 was below 500 nM.
For `Cn1nccc1-c1cc(NS(=O)(=O)c2cc(C(=O)O)ccc2C2CC2)c(-n2cccc2)cc1Cl` [Example 200, 3-(N-(4-chloro-5-(1-methylpyrazol-5-yl)-2-(pyrrol-1-yl)phenyl)sulfamoyl)-4-cyclopropylbenzoic acid] the value was below 500 nM; for `Cn1ncnc1-c1cc(NS(=O)(=O)c2cc(C(=O)O)ccc2C2CC2)c(-n2cccc2)cc1F` [Example 201, 4-cyclopropyl-3-(N-(4-fluoro-5-(1-methyl-1,2,4-triazol-5-yl)-2-(pyrrol-1-yl)phenyl)sulfamoyl)benzoic acid], below 500 nM.
